Results as given in patent US10173991B2, “Sulfone amide linked benzothiazole inhibitors of endothelial lipase” (BRISTOL-MYERS SQUIBB COMPANY, priority 2014, dated 2019).

These molecules were tested against Endothelial lipase (EL) (Homo sapiens (Human), UniProt Q9Y5X9) (assay: Endothelial lipase (EL) enzymatic assay with fluorescent substrate A10070 in DMPG vesicles). Settings: not given.
Format: biochemical
Outline: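 Compounds were preincubated with enzyme for 30 min at 37° C before FRET-substrate vesicles (A10070 in DMPG, 0.11 mole fraction) were added. Reaction rates were obtained from the 300–900 sec slope of fluorescence at 490/530 nm.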

Sequence of Endothelial lipase (EL) (Q9Y5X9 21-500): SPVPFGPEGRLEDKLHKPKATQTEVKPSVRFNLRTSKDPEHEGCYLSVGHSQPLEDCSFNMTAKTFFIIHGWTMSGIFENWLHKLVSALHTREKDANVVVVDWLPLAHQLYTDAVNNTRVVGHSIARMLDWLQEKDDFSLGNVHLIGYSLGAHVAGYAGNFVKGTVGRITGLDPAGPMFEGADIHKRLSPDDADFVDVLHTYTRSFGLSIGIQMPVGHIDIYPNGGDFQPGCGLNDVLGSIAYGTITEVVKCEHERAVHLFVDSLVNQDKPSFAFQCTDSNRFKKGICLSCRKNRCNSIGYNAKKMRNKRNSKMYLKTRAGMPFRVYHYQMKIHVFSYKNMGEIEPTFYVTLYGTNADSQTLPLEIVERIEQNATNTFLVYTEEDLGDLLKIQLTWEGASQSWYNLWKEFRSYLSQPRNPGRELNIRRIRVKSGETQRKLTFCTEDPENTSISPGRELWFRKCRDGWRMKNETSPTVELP

SMILES | IC50 [nM]
CC(C)OC(=O)Nc1ccc(-c2cc3sc(C(C(=O)NCC(=O)NC4CC4)S(C)(=O)=O)nc3cc2F)cc1 (centres unmarked) [Example 539, propan-2-yl N-{4-[2-({[(cyclopropyl-carbamoyl)methyl]carbamoyl} (methanesulfonyl)methyl)-5-fluoro-1,3-benzothiazol-6-yl]phenyl} carbamate] | 1
CC(C)OC(=O)Nc1ccc(-c2cc3sc(C(C(=O)NCC(=O)NC4CC4)S(=O)(=O)C(C)C)nc3cc2F)cc1 (centres unmarked) [Example 541, propan-2-yl N-{4-[2-({[(cyclopropyl-carbamoyl)methyl]carbamoyl} (propane-2-sulfonyl)methyl)-5-fluoro-1,3-benzothiazol-6-yl]phenyl} carbamate] | 2
CC(C)OC(=O)Nc1ccc(-c2cc3sc(C(C(=O)NCC(=O)NC4CC4)S(=O)(=O)C4CC4)nc3cc2F)cc1 (centres unmarked) [Example 542, propan-2-yl N-(4-{2-[(cyclopropane-sulfonyl) ({[(cyclopropyl-carbamoyl)methyl]carbamoyl})methyl]-5-fluoro-1,3-benzothiazol-6-yl}phenyl) carbamate] | 2
O=C(CNC(=O)C(c1nc2cc(-c3ccc(NC(=O)OCc4ccccc4)nc3)c(F)cc2s1)S(=O)(=O)CCC(F)(F)F)NC1CC1 (centres unmarked) [Example 543, benzyl N-{5-[2-({[(cyclopropyl-carbamoyl)methyl]carbamoyl}(3,3,3-trifluoropropane-sulfonyl)methyl)-6-fluoro-1,3-benzothiazol-5-yl]pyridin-2-yl} carbamate] | 6
COC(=O)N(C)c1cccc(-c2ccc3nc(C(C(=O)NCC(=O)NC4CC4)S(C)(=O)=O)sc3c2)c1 (centres unmarked) [Example 544, methyl N-{3-[2-({[(cyclopropyl-carbamoyl)methyl]carbamoyl} (methanesulfonyl)methyl)-1,3-benzothiazol-6-yl]phenyl}-N-methylcarbamate] | 19
COCCS(=O)(=O)C(C(=O)NCC(=O)NC1CC1)c1nc2ccc(-c3cccc(N(C)C(=O)OC)c3)cc2s1 (centres unmarked) [Example 545, methyl N-{3-[2-({[(cyclopropyl-carbamoyl)methyl]carbamoyl}(2-methoxyethane-sulfonyl)methyl)-1,3-benzothiazol-6-yl]phenyl}-N-methylcarbamate] | 13
COC(=O)N(C)c1cccc(-c2ccc3nc(C(C(=O)NCC(=O)NC4CC4)S(=O)(=O)CCC(F)(F)F)sc3c2)c1 (centres unmarked) [Example 546, methyl N-{3-[2-({[(cyclopropyl-carbamoyl)methyl]carbamoyl}(3,3,3-trifluoropropane-sulfonyl)methyl)-1,3-benzothiazol-6-yl]phenyl}-N-methylcarbamate] | 7
COC(=O)N(C)c1cccc(-c2cc3sc(C(C(=O)NCC(=O)NC4CC4)S(C)(=O)=O)nc3cc2F)c1 (centres unmarked) [Example 547, methyl N-{3-[2-({[(cyclopropyl-carbamoyl)methyl]carbamoyl} (methanesulfonyl)methyl)-5-fluoro-1,3-benzothiazol-6-yl]phenyl}-N-methylcarbamate] | 8
COCCS(=O)(=O)C(C(=O)NCC(=O)NC1CC1)c1nc2cc(F)c(-c3cccc(N(C)C(=O)OC)c3)cc2s1 (centres unmarked) [Example 548, methyl N-{3-[2-({[(cyclopropyl-carbamoyl)methyl]carbamoyl}(2-methoxyethane-sulfonyl)methyl)-5-fluoro-1,3-benzothiazol-6-yl]phenyl}-N-methylcarbamate] | 12
COCCS(=O)(=O)C(C(=O)NCC(=O)NC1CC1)c1nc2cc(F)c(-c3cccc(NC(=O)OCc4ccccc4)c3)cc2s1 (centres unmarked) [Example 549, benzyl N-{3-[2-({[(cyclopropyl-carbamoyl)methyl]carbamoyl}(2-methoxyethane-sulfonyl)methyl)-5-fluoro-1,3-benzothiazol-6-yl]phenyl} carbamate] | 4
CS(=O)(=O)C(C(=O)NCC(=O)NC1CC1)c1nc2cc(F)c(-c3cccc(NC(=O)OCc4ccccc4)c3)cc2s1 (centres unmarked) [Example 550, benzyl N-{3-[2-({[(cyclopropyl-carbamoyl)methyl]carbamoyl} (methanesulfonyl)methyl)-5-fluoro-1,3-benzothiazol-6-yl]phenyl} carbamate] | 1
COCCS(=O)(=O)C(C(=O)NCC(=O)NC1CC1)c1nc2cc(F)c(-c3ccc(NC(=O)OCc4ccccc4)nc3)cc2s1 (centres unmarked) [Example 551, benzyl N-{5-[2-({[(cyclopropyl-carbamoyl)methyl]carbamoyl}(2-methoxyethane-sulfonyl)methyl)-5-fluoro-1,3-benzothiazol-6-yl]pyridin-2-yl} carbamate] | 1
CS(=O)(=O)C(C(=O)NCC(=O)NC1CC1)c1nc2cc(F)c(-c3ccc(NC(=O)OCc4ccccc4)nc3)cc2s1 (centres unmarked) [Example 552, benzyl N-{5-[2-({[(cyclopropyl-carbamoyl)methyl]carbamoyl} (methanesulfonyl)methyl)-5-fluoro-1,3-benzothiazol-6-yl]pyridin-2-yl}carbamate] | 1
O=C(CNC(=O)C(c1nc2cc(F)c(-c3cccc(NC(=O)OCc4ccccc4)c3)cc2s1)S(=O)(=O)CCC(F)(F)F)NC1CC1 (centres unmarked) [Example 553, benzyl N-{3-[2-({[(cyclopropyl-carbamoyl)methyl]carbamoyl}(3,3,3-trifluoropropane-sulfonyl)methyl)-5-fluoro-1,3-benzothiazol-6-yl]phenyl} carbamate] | 1
O=C(CNC(=O)C(c1nc2cc(F)c(-c3ccc(NC(=O)OCc4ccccc4)nc3)cc2s1)S(=O)(=O)CCC(F)(F)F)NC1CC1 (centres unmarked) [Example 554, benzyl N-{5-[2-({[(cyclopropyl-carbamoyl)methyl]carbamoyl}(3,3,3-trifluoropropane-sulfonyl)methyl)-5-fluoro-1,3-benzothiazol-6-yl]pyridin-2-yl} carbamate] | 3
O=C(CNC(=O)C(c1nc2cc(F)c(-c3cccc(NC(=O)OCc4ccccc4)c3)cc2s1)S(=O)(=O)C1CC1)NC1CC1 (centres unmarked) [Example 555, benzyl N-(3-{2-[(cyclopropane-sulfonyl) ({[(cyclopropyl-carbamoyl)methyl]carbamoyl})methyl]-5-fluoro-1,3-benzothiazol-6-yl}phenyl) carbamate] | 1
O=C(CNC(=O)C(c1nc2cc(F)c(-c3ccc(NC(=O)OCc4ccccc4)nc3)cc2s1)S(=O)(=O)C1CC1)NC1CC1 (centres unmarked) [Example 556, benzyl N-(5-{2-[(cyclopropane-sulfonyl) ({[(cyclopropyl-carbamoyl)methyl]carbamoyl)methyl]-5-fluoro-1,3-benzothiazol-6-yl}pyridin-2-yl) carbamate] | 15
CC(C)S(=O)(=O)C(C(=O)NCC(=O)NC1CC1)c1nc2cc(F)c(-c3cccc(NC(=O)OCc4ccccc4)c3)cc2s1 (centres unmarked) [Example 557, benzyl N-{3-[2-({[(cyclopropyl-carbamoyl)methyl]carbamoyl} (propane-2-sulfonyl)methyl)-5-fluoro-1,3-benzothiazol-6-yl]phenyl}carbamate] | 7
COCC(C)(C)NC(=O)c1ccc(-c2ccc3nc(C(C(=O)NCC(=O)NC4CC4)S(C)(=O)=O)sc3c2)cc1 (centres unmarked) [Example 560, 4-[2-({[(cyclopropyl-carbamoyl)methyl]carbamoyl} (methanesulfonyl)methyl)-1,3-benzothiazol-6-yl]-N-(1-methoxy-2-methylpropan-2-yl)benzamide] | 2
COCCS(=O)(=O)C(C(=O)NCC(=O)NC1CC1)c1nc2ccc(-c3ccc(C(=O)NC(C)(C)COC)cc3)cc2s1 (centres unmarked) [Example 561, 4-[2-({[(cyclopropyl-carbamoyl)methyl]carbamoyl}(2-methoxyethane-sulfonyl)methyl)-1,3-benzothiazol-6-yl]-N-(1-methoxy-2-methylpropan-2-yl)benzamide] | 3
COCCS(=O)(=O)C(C(=O)NCC(=O)NC1CC1)c1nc2ccc(-c3ccc(C(=O)N4CCO[C@@H](C)C4)cc3)cc2s1 (stereo partly drawn) [Example 562, N-[(cyclopropyl-carbamoyl)methyl]-2-(2-methoxyethane-sulfonyl)-2-(6-{4-[(2S)-2-methyl-morpholine-4-carbonyl]phenyl}-1,3-benzothiazol-2-yl)acetamide] | 11
CC1(O)CN(C(=O)c2ccc(-c3cc4sc(C(C(=O)NCC(=O)NC5CC5)S(=O)(=O)CCC(F)(F)F)nc4cc3F)cc2)C1 (centres unmarked) [Example 564, N-[(cyclopropyl-carbamoyl)methyl]-2-{5-fluoro-6-[4-(3-hydroxy-3-methylazetidine-1-carbonyl)phenyl]-1,3-benzothiazol-2-yl}-2-[3,3,3-trifluoropropane-sulfonyl)acetamide] | 5
COCCS(=O)(=O)C(C(=O)NCC(=O)NC1CC1)c1nc2cc(F)c(-c3ccc(C(=O)N4CC(C)(O)C4)cc3)cc2s1 (centres unmarked) [Example 565, N-[(cyclopropyl-carbamoyl)methyl]-2-{5-fluoro-6-[4-(3-hydroxy-3-methylazetidine-1-carbonyl)phenyl]-1,3-benzothiazol-2-yl}-2-(2-methoxyethane-sulfonyl)acetamide] | 3
COCCS(=O)(=O)C(C(=O)NCC(=O)NC1CC1)c1nc2ccc(-c3ccc(C(=O)NCC(C)(C)OC)cc3)cc2s1 (centres unmarked) [Example 566, 4-[2-({[(cyclopropyl-carbamoyl)methyl]carbamoyl}(2-methoxyethane-sulfonyl)methyl)-1,3-benzothiazol-6-yl]-N-(2-methoxy-2-methylpropyl) benzamide] | 4

Same assay, conditions: EL from conditioned media of HT-1080 cells; 30 min preincubation at 37° C.

SMILES | IC50 [nM]
COC(=O)Nc1ccc(-c2cc3sc(C(C(=O)NCC(=O)NC4CC4)S(C)(=O)=O)nc3cc2F)cc1OC (centres unmarked) [Example 538, Methyl N-{4-[2({[(cyclopropylcarbamoyl)methyl]carbamoyl}(methanesulfonyl)methyl)-5-fluoro-1,3-benzothiazol-6-yl]-2-methoxyphenyl}carbamate] | 4.5
COCCS(=O)(=O)C(C(=O)NCC(=O)NC1CC1)c1nc2ccc(-c3ccc(C(=O)NCC(C)(C)COC)cc3)cc2s1 (centres unmarked) [Example 559, 4-(2-(2-((2-(Cyclopropylamino)-2-oxoethyl)amino)-1-((2-methoxyethyl)sulfonyl)-2-oxoethyl)benzo[d]thiazol-6-yl)-N-(3-methoxy-2,2-dimethylpropyl)benzamide] | 5.5
